# Tested on: prostate cancer patients
# Experiment: PSMA-PET/CT of prostate cancer patients
# Type: in vivo, human
# Conditions: patient PET/CT, 20 nmol
# Experimental: Diagnostic PSMA-PET/computed tomography (CT) examinations were performed 1 and 3 h after antecubital injection of 339 MBq/20 nmol ^68Ga-CA028 or 295 MBq/20 nmol ^68Ga-CA030 per patient, respectively. The method for assessing the biodistribution was performed as previously described by Afshar-Oromieh et al. ([Afshar-Oromieh et al., 2015b]). Applying the clinical standard software Syngo (Siemens), which was used to define the VOIs in the PET images, the activity distributions of the source organs was determined. This reference ([Afshar-Oromieh et al., 2015b]) was also used as a standard of reference for ^68Ga-PSMA-617 (Table 3).
structure (smiles),measurement,setting,value
O=C([O-])CN1CCN(CC(=O)[O-])CCN(Cc2ccc(C(=O)NCC3CCC(C(=O)NC(Cc4ccc5ccccc5c4)C(=O)NCCCCC(NC(=O)NC(CCC(=O)O)C(=O)O)C(=O)O)CC3)cc2)CCN(CC(=O)[O-])CC1.[68Ga+3] (centres unmarked) [^68Ga-CA028],SUV mean Bone metastasis,"first listed bone metastasis, 1 h p.i.",4.5
same,SUV mean Bone metastasis,"first listed bone metastasis, 3 h p.i.",4.1
same,SUV mean Lymph node,"first listed lymph node, 1 h p.i.",13.5
same,SUV mean Lymph node,"first listed lymph node, 3 h p.i.",10.7
same,"SUV mean Blood pool, mediastinal",1 h p.i.,3.2
same,SUV mean Colon,1 h p.i.,4.9
same,SUV mean Gluteal muscle,1 h p.i.,0.7
same,SUV mean Kidneys,1 h p.i.,13.8
same,SUV mean Lacrimal gland,1 h p.i.,7.4
same,SUV mean Liver,1 h p.i.,4.3
same,SUV mean Lung metastasis,1 h p.i.,5.7
same,SUV mean Nasal mucosa,1 h p.i.,2.9
same,SUV mean Parotid gland,1 h p.i.,11.0
same,SUV mean Proximal small intestine,1 h p.i.,8.4
same,SUV mean Spleen,1 h p.i.,5.1
same,SUV mean Sublingual gland,1 h p.i.,3.8
same,SUV mean Submandibular gland,1 h p.i.,14.4
same,"SUV mean Blood pool, mediastinal",3 h p.i.,2.9
same,SUV mean Colon,3 h p.i.,4.2
same,SUV mean Gluteal muscle,3 h p.i.,0.4
same,SUV mean Kidneys,3 h p.i.,10.9
same,SUV mean Lacrimal gland,3 h p.i.,7.6
same,SUV mean Liver,3 h p.i.,1.8
same,SUV mean Lung metastasis,3 h p.i.,4.7
same,SUV mean Nasal mucosa,3 h p.i.,3.5
same,SUV mean Parotid gland,3 h p.i.,8.0
same,SUV mean Proximal small intestine,3 h p.i.,10.4
same,SUV mean Spleen,3 h p.i.,2.5
same,SUV mean Sublingual gland,3 h p.i.,2.8
same,SUV mean Submandibular gland,3 h p.i.,8.9
same,SUV mean Bone metastasis,"second listed bone metastasis, 1 h p.i.",6.9
same,SUV mean Bone metastasis,"second listed bone metastasis, 3 h p.i.",5.7
same,SUV mean Lymph node,"second listed lymph node, 1 h p.i.",17.0
same,SUV mean Lymph node,"second listed lymph node, 3 h p.i.",25.4
same,SUV mean Bone metastasis,"third listed bone metastasis, 1 h p.i.",4.6
same,SUV mean Bone metastasis,"third listed bone metastasis, 3 h p.i.",4.4
same,SUV mean Lymph node,"third listed lymph node, 1 h p.i.",5.0
same,SUV mean Lymph node,"third listed lymph node, 3 h p.i.",4.1

# Source: article PMC9396645 (Frontiers in Chemistry, 2022)
